{"source": "patent US20250339569A1", "about": "“CARBONIC ANHYDRASE IX LIGANDS” (priority 2021, published 2025)", "note": "Starred links: 1 amine or outer side, 2 acyl side, 3 side chain; linkers in the order of their positions; H or OH if unused. Positions of bridges follow the written chain, without caps; N, C: chain ends. Non-standard residues stand in square brackets, D forms with d. Residues, ends and D or L forms follow the SMILES beside them. No end group written: not given here. *: point of attachment. DOTA = O=C(O)CN1CCN(CC(=O)O)CCN(CC(=O)*)CCN(CC(=O)O)CC1; NGly(3-aminopropyl) = O=C(CN(CCCN[*:3])[*:1])[*:2]; mXylylene = c1cc(C[*:1])cc(C[*:2])c1; Pen = CC(C)(S)[C@H](N)C(=O)O; APAc = not defined here; Aib = CC(C)(N)C(=O)O; Sar = CNCC(=O)O"}
{"biological_target": "T1, CAIX-expressing human HT-29 colorectal cancer cells (Homo sapiens, UniProt Q16790)", "T1 construct": "CAIX-expressing human HT-29 colorectal cancer cells; host or cells: HT-29 human colorectal cancer cells", "assay": "FACS binding assay (IC50 determination, competition with tracer 3BP-2776 or 3BP-4149)", "settings": "FACS binding assay, HT-29 cells, competition with tracer 3BP-2776 (10 nM, biotin-labeled), 4° C., 1 hour", "method": "(§1) In order to determine binding of compounds according to the present invention to CAIX-expressing cells, a FACS binding assay was established.\n(§2) CAIX-expressing human HT-29 colorectal cancer cells (DSMZ, RRID: CVCL_0320) were cultured in McCoys's 5A modified medium (Biochrom, #F1015) including 10% fetal calf serum (FCS), 2 mM L-glutamine, 100 U/ml penicillin and 100 μg/mL streptomycin. Cells were detached with Accutase (Biolegend, #423201) and washed in FACS buffer (PBS including 1% FCS). Cells were diluted in FACS buffer to a final concentration of 500.000 cells per ml. 200 μL of the cell suspension were transferred to a u-shaped non-binding 96-well plate (Greiner) and cells were washed in ice-cold FACS buffer.\n(§3) When biotinylated compounds were used an additional incubation step with 1 μg/mL APC-Streptavidin (Miltenyi; #130-106-791) in 50 μL FACS buffer for 30 minutes on ice was performed.\n(§4) Cells were washed twice with ice-cold FACS buffer and analyzed in an Attune NxT flow cytometer (Thermo Fisher). Median fluorescence intensities (MFI) of the APC/Cy5-channel were calculated by Attune NxT software. MFI values were plotted against peptide concentration and four parameter logistic (4PL) curve fitting and EC50/pEC50 or IC50/pIC50 calculations were performed using ActivityBase software."}
{"molecule": "3BP-4178 ([dP]PVYCE[dP]DWLTWSC; linker 5-14 via mXylylene; not fully specified (bridges))", "pIC50 category (activity)": "A (pIC50 values >8.0)"}
{"molecule": "3BP-4252 ({DOTA-APAc}-VYCEG[NGly(3-aminopropyl)]WLEWSC-NH2; linker 3-12 via mXylylene; lactam 6-9; reading uncertain)", "pIC50 category (activity)": "B (pIC50 values between 7.1 and 8.0)"}
{"biological_target": "T1, CAIX-expressing human HT-29 colorectal cancer cells", "assay": "FACS binding assay (IC50 determination, competition with tracer 3BP-2776 or 3BP-4149)", "settings": "FACS competition on HT-29 cells, Tracer ID 3BP-2776 (10 nM, biotin-labeled), 4° C., 1 hour; read-out: pIC50 category (activity) (converted)", "method": "as §1, §2, §3, §4", "units": {"IC50": "nM"}}
{"molecule": "CSCC[C@H](NC(C)=O)C(=O)N[C@H](C(=O)N[C@@H](Cc1ccc(O)cc1)C(=O)N[C@H]1CSCc2cccc(c2)CSC[C@@H](C(N)=O)NC(=O)[C@H](CCC(N)=O)NC(=O)[C@H](Cc2c[nH]c3ccccc23)NC(=O)[C@H]([C@@H](C)O)NC(=O)[C@H](CC(C)C)NC(=O)[C@H](Cc2c[nH]c3ccccc23)NC(=O)[C@H](CC(=O)O)NC(=O)CNC(=O)[C@H](CCC(=O)O)NC1=O)C(C)C", "note": "[3BP-2836] (Ac-MVYCEGDWLTWQC-NH2; linker 4-13 via mXylylene)", "IC50": "100 to 794"}
{"molecule": "CC(=O)N[C@@H](C(=O)N[C@@H](Cc1ccc(O)cc1)C(=O)N[C@H]1CSCc2cccc(c2)CSC[C@@H](C(N)=O)NC(=O)[C@H](CCC(N)=O)NC(=O)[C@H](Cc2c[nH]c3ccccc23)NC(=O)[C@H]([C@@H](C)O)NC(=O)[C@H](CC(C)C)NC(=O)[C@H](Cc2c[nH]c3ccccc23)NC(=O)[C@H](CC(=O)O)NC(=O)CNC(=O)[C@H](CCC(=O)O)NC1=O)C(C)C", "note": "[3BP-3043] (Ac-[dV]YCEGDWLTWQC-NH2; linker 3-12 via mXylylene)", "IC50": "10 to 79.4"}
{"molecule": "CC(=O)N[C@H](C(=O)N[C@H](Cc1ccc(O)cc1)C(=O)N[C@H]1CSCc2cccc(c2)CSC[C@@H](C(N)=O)NC(=O)[C@H](CCC(N)=O)NC(=O)[C@H](Cc2c[nH]c3ccccc23)NC(=O)[C@H]([C@@H](C)O)NC(=O)[C@H](CC(C)C)NC(=O)[C@H](Cc2c[nH]c3ccccc23)NC(=O)[C@H](CC(=O)O)NC(=O)CNC(=O)[C@H](CCC(=O)O)NC1=O)C(C)C", "note": "[3BP-3044] (Ac-V[dY]CEGDWLTWQC-NH2; linker 3-12 via mXylylene)", "IC50": "100 to 794"}
{"molecule": "CC(=O)N[C@H](C(=O)N[C@@H](Cc1ccc(O)cc1)C(=O)N[C@H]1CSCc2cccc(c2)CSC[C@@H](C(N)=O)NC(=O)[C@H](CCC(N)=O)NC(=O)[C@H](Cc2c[nH]c3ccccc23)NC(=O)[C@H]([C@@H](C)O)NC(=O)[C@H](CC(C)C)NC(=O)[C@H](Cc2c[nH]c3ccccc23)NC(=O)[C@H](CC(=O)O)NC(=O)CNC(=O)[C@@H](CCC(=O)O)NC1=O)C(C)C", "note": "[3BP-3045] (Ac-VYC[dE]GDWLTWQC-NH2; linker 3-12 via mXylylene)", "IC50": "100 to 794"}
{"molecule": "CC(=O)N[C@H](C(=O)N[C@@H](Cc1ccc(O)cc1)C(=O)N[C@H]1CSCc2cccc(c2)CSC[C@@H](C(N)=O)NC(=O)[C@H](CCC(N)=O)NC(=O)[C@H](Cc2c[nH]c3ccccc23)NC(=O)[C@H]([C@@H](C)O)NC(=O)[C@H](CC(C)C)NC(=O)[C@H](Cc2c[nH]c3ccccc23)NC(=O)[C@H](CC(=O)O)NC(=O)[C@@H](C)NC(=O)[C@H](CCC(=O)O)NC1=O)C(C)C", "note": "[3BP-3046] (Ac-VYCE[dA]DWLTWQC-NH2; linker 3-12 via mXylylene)", "IC50": "< 10"}
{"molecule": "CC(=O)N[C@H](C(=O)N[C@@H](Cc1ccc(O)cc1)C(=O)N[C@H]1CSCc2cccc(c2)CSC[C@@H](C(N)=O)NC(=O)[C@H](CCC(N)=O)NC(=O)[C@H](Cc2c[nH]c3ccccc23)NC(=O)[C@H]([C@@H](C)O)NC(=O)[C@H](CC(C)C)NC(=O)[C@H](Cc2c[nH]c3ccccc23)NC(=O)[C@@H](CC(=O)O)NC(=O)CNC(=O)[C@H](CCC(=O)O)NC1=O)C(C)C", "note": "[3BP-3047] (Ac-VYCEG[dD]WLTWQC-NH2; linker 3-12 via mXylylene)", "IC50": "100 to 794"}
{"molecule": "CC(=O)N[C@H](C(=O)N[C@@H](Cc1ccc(O)cc1)C(=O)N[C@H]1CSCc2cccc(c2)CSC[C@@H](C(N)=O)NC(=O)[C@H](CCC(N)=O)NC(=O)[C@H](Cc2c[nH]c3ccccc23)NC(=O)[C@H]([C@@H](C)O)NC(=O)[C@@H](CC(C)C)NC(=O)[C@H](Cc2c[nH]c3ccccc23)NC(=O)[C@H](CC(=O)O)NC(=O)CNC(=O)[C@H](CCC(=O)O)NC1=O)C(C)C", "note": "[3BP-3048] (Ac-VYCEGDW[dL]TWQC-NH2; linker 3-12 via mXylylene)", "IC50": "100 to 794"}
{"molecule": "CC(=O)N[C@H](C(=O)N[C@@H](Cc1ccc(O)cc1)C(=O)N[C@H]1CSCc2cccc(c2)CSC[C@@H](C(N)=O)NC(=O)[C@H](CCC(N)=O)NC(=O)[C@H](Cc2c[nH]c3ccccc23)NC(=O)[C@@H]([C@H](C)O)NC(=O)[C@H](CC(C)C)NC(=O)[C@H](Cc2c[nH]c3ccccc23)NC(=O)[C@H](CC(=O)O)NC(=O)CNC(=O)[C@H](CCC(=O)O)NC1=O)C(C)C", "note": "[3BP-3049] (Ac-VYCEGDWL[dT]WQC-NH2; linker 3-12 via mXylylene)", "IC50": "100 to 794"}
{"molecule": "CC(=O)N[C@H](C(=O)N[C@@H](Cc1ccc(O)cc1)C(=O)N[C@H]1CSCc2cccc(c2)CSC[C@@H](C(N)=O)NC(=O)[C@H](CCC(N)=O)NC(=O)[C@H](Cc2c[nH]c3ccccc23)NC(=O)[C@H]([C@@H](C)O)NC(=O)[C@H](CC(C)C)NC(=O)[C@H](Cc2c[nH]c3ccccc23)NC(=O)[C@H](CC(=O)O)NC(=O)CNC(=O)[C@H](C)NC1=O)C(C)C", "note": "[3BP-3052] (Ac-VYCAGDWLTWQC-NH2; linker 3-12 via mXylylene)", "IC50": "< 10"}
{"molecule": "CC(=O)N[C@H](C(=O)N[C@@H](Cc1ccc(O)cc1)C(=O)N[C@H]1CSCc2cccc(c2)CSC[C@@H](C(N)=O)NC(=O)[C@H](CCC(N)=O)NC(=O)[C@H](Cc2c[nH]c3ccccc23)NC(=O)[C@H]([C@@H](C)O)NC(=O)[C@H](CC(C)C)NC(=O)[C@H](Cc2c[nH]c3ccccc23)NC(=O)[C@H](C)NC(=O)CNC(=O)[C@H](CCC(=O)O)NC1=O)C(C)C", "note": "[3BP-3053] (Ac-VYCEGAWLTWQC-NH2; linker 3-12 via mXylylene)", "IC50": "10 to 79.4"}
{"molecule": "CC(=O)N[C@H](C(=O)N[C@@H](Cc1ccc(O)cc1)C(=O)N[C@H]1CSCc2cccc(c2)CSC[C@@H](C(N)=O)NC(=O)[C@H](CCC(N)=O)NC(=O)[C@H](Cc2c[nH]c3ccccc23)NC(=O)[C@H]([C@@H](C)O)NC(=O)[C@H](C)NC(=O)[C@H](Cc2c[nH]c3ccccc23)NC(=O)[C@H](CC(=O)O)NC(=O)CNC(=O)[C@H](CCC(=O)O)NC1=O)C(C)C", "note": "[3BP-3055] (Ac-VYCEGDWATWQC-NH2; linker 3-12 via mXylylene)", "IC50": "100 to 794"}
{"molecule": "CC(=O)N[C@H](C(=O)N[C@@H](Cc1ccc(O)cc1)C(=O)N[C@H]1CSCc2cccc(c2)CSC[C@@H](C(N)=O)NC(=O)[C@H](CCC(N)=O)NC(=O)[C@H](Cc2c[nH]c3ccccc23)NC(=O)[C@H](C)NC(=O)[C@H](CC(C)C)NC(=O)[C@H](Cc2c[nH]c3ccccc23)NC(=O)[C@H](CC(=O)O)NC(=O)CNC(=O)[C@H](CCC(=O)O)NC1=O)C(C)C", "note": "[3BP-3056] (Ac-VYCEGDWLAWQC-NH2; linker 3-12 via mXylylene)", "IC50": "10 to 79.4"}
{"molecule": "CC(=O)N[C@H](C(=O)N[C@@H](Cc1ccc(O)cc1)C(=O)N[C@H]1CSCc2cccc(c2)CSC[C@@H](C(N)=O)NC(=O)[C@H](CCC(N)=O)NC(=O)[C@H](Cc2c[nH]c3ccccc23)NC(=O)[C@H]([C@@H](C)O)NC(=O)[C@H](CC(C)C)NC(=O)[C@H](Cc2c[nH]c3ccccc23)NC(=O)[C@H](CC(=O)O)NC(=O)C(C)(C)NC(=O)[C@H](CCC(=O)O)NC1=O)C(C)C", "note": "[3BP-3059] (Ac-VYCE[Aib]DWLTWQC-NH2; linker 3-12 via mXylylene)", "IC50": "< 10"}
{"molecule": "CC(=O)N[C@H](C(=O)N[C@@H](Cc1ccc(O)cc1)C(=O)N[C@H]1CSCc2cccc(c2)CSC[C@@H](C(N)=O)NC(=O)[C@H](CCC(N)=O)NC(=O)[C@H](Cc2c[nH]c3ccccc23)NC(=O)[C@H]([C@@H](C)O)NC(=O)[C@H](CC(C)C)NC(=O)[C@H](Cc2c[nH]c3ccccc23)NC(=O)[C@H](CC(=O)O)NC(=O)CN(C)C(=O)[C@H](CCC(=O)O)NC1=O)C(C)C", "note": "[3BP-3060] (Ac-VYCE[Sar]DWLTWQC-NH2; linker 3-12 via mXylylene)", "IC50": "< 10"}
{"molecule": "CC(=O)N[C@H](C(=O)N[C@@H](Cc1ccc(O)cc1)C(=O)N[C@H]1CSCc2cccc(c2)CSC[C@@H](C(N)=O)NC(=O)[C@H](CCC(N)=O)NC(=O)[C@H](Cc2c[nH]c3ccccc23)NC(=O)[C@H]([C@@H](C)O)NC(=O)[C@H](CC(C)C)NC(=O)[C@H](Cc2c[nH]c3ccccc23)NC(=O)C(C)(C)NC(=O)CNC(=O)[C@H](CCC(=O)O)NC1=O)C(C)C", "note": "[3BP-3061] (Ac-VYCEG[Aib]WLTWQC-NH2; linker 3-12 via mXylylene)", "IC50": "100 to 794"}
{"molecule": "CC(=O)N[C@H](C(=O)N[C@@H](Cc1ccc(O)cc1)C(=O)N[C@@H]1C(=O)N[C@@H](CCC(=O)O)C(=O)NCC(=O)N[C@@H](CC(=O)O)C(=O)N[C@@H](Cc2c[nH]c3ccccc23)C(=O)N[C@@H](CC(C)C)C(=O)N[C@@H]([C@@H](C)O)C(=O)N[C@@H](Cc2c[nH]c3ccccc23)C(=O)N[C@@H](CCC(N)=O)C(=O)N[C@H](C(N)=O)CSCc2cccc(c2)CSC1(C)C)C(C)C", "note": "[3BP-3063] (Ac-VY[Pen]EGDWLTWQC-NH2; linker 3-12 via mXylylene)", "IC50": "10 to 79.4"}
